Reference: US8927598B2, “Treating oncogenic Ras driven cancers” (Duke University, priority 2008, dated 2015)

Columns and labels:
[1] = tested on: pancreatic cancer cell line; test: Tumor growth in SCID-beige mice of pancreatic cancer cell lines stably infected with siRNA plasmid; type: in vivo, human; settings: cells expressing the siRNA
Description: Methods for creating stably infected cell lines are set below:
Day 1 • Morning—split a 10 cm plate of confluent 293T/17 cells (ATCC CRL-11268) 1:6 in αMEM supplemented with 10% Fetal Calf Serum (FCS) (no antibiotics) into a 10 cm plate so as to be 40-50% confluent at time of transfection.
Day 2 • Morning—mix in tissue culture hood in microcentrifuge tube: 12 μg pCL-10A1, 3 μg pSUPER-RETRO-PURO plasmid (OligoEngine, Seattle, Wash.) engineered to encode eNOS, RNA, NRas siRNA or HRas siRNA, and serum free media to 200 μl total volume. Tap tube side gently to mix and incubate at room temperature 15-45 minutes. Add dropwise to 293T/17 cells with micropipette and incubate overnight at 37° C.
Day 3 • Morning—repeat transfection protocol from day 2. Once the transfection mix is added to the cells, it must be incubated for at least 8 hours. Evening—remove media and replace with 6 ml of cell specific media of cells to be infected.
Day 4 • Morning—split a confluent 10 cm plate of pancreatic cancer cell line to be infected in cell type specific media so that they will reach 25-35% confluency the following morning.
Day 5 • Morning—aspirate media in a 10 ml syringe, attach 0.45 μm acrodisc filter to the bottom of the syringe. Filter the media into a 15 ml conical tube. […]
Method of testing pancreatic cancer cell line for tumor growth is set forth below: • 1. Expand pancreatic cancer cells stably infected with pSUPER-RETRO-PURO plasmid (OligoEngine) engineered to encode eNOS siRNA, NRas siRNA, or HRas siRNA to a total count of at least 1×10^7 cells/mouse, typically 4-8 15 cm tissue culture dishes at full confluency (number of dishes determined by cell size). • 2. […] Weigh each mouse for baseline reading and track tumor progression over the weeks to months by measuring large and small diameters and extrapolating tumor volume utilizing the equation: Tumor Volume=(small diameter)^2[…](large diameter/2).

human NRas = test: Knockdown of NRas expression, immunoblot; type: cell-based
Text: (§1) The siRNA of SEQ ID NO: 2 is produced as follows: Complementary oligonucleotides obtained from Integrated DNA Technologies (Coralville, USA) and annealed together were cloned into the Hind III and Bgl II sites of pSUPER-RETRO (OligoEngine, Seattle, Wash.). The sense strand of this insert is identified in the Sequence Listing as SEQ ID NO: 8. Transcription of this sequence by RNA polymerase produces an shRNA having the sequence identified in the Sequense Listing as SEQ ID NO: 9. This is processed using Dicer complex to remove the hairpin to give the double stranded RNA sequence of SEQ ID NO: 2 which specifically knocks down the expression of human NRas.
A test for determining that NRas expression is reduced is by immunoblot by using commercially available NRas antibody.

human HRas = test: Knockdown of HRas expression, immunoblot; type: cell-based
Text: as §1, with “3” for “2”, “6.” for “8.”, “7.” for “9.”, “HRas.” for “NRas.”
A test for determining that HRas expression is reduced is by immunoblot by using commercially available HRas antibody.

[2] = tested on: human pancreatic cell line MiaPaCa-2; test: Tumor growth of MiaPaCa-2 cells injected into SCID-beige mice given L-NAME in drinking water; type: in vivo; settings: L-NAME 0.5 g/liter in drinking water, vs untreated drinking water
Text: Eight SCID-beige immunocompromised mice. (The Jackson Laboratory, Bar Harbor, Me.). were each injected simultaneously with one million cells of the human pancreatic cell line MiaPaCa-2 (available from the ATCC, identified as ATCC CRL-1420). Then 4 mice were provided with drinking water supplemented with L-NAME at a concentration of 0.5 g/liter and 4 were provided with drinking water that was not supplemented. Measurements were taken at the site of the injection to calculate tumor volume. Results are shown in FIG. 1 which is a graph of Tumor Volume vs. Time in days after injection where the diamonds denote measurements on untreated mice and the triangles denote measurements on L-NAME fed mice.

human eNOS = test: Knockdown of eNOS expression, immunoblot; type: cell-based
Text: The siRNA of SEQ ID NO:1 is produced as follows: Complementary oligonucletides obtained from Integrated DNA Technologies (Coralville, USA) and annealed together were cloned into the Hind III and Bgl II sites of pSUPER-RETRO (OligoEngine, Seattle, Wash.). The sense strand of this insert is identified in the Sequence Listing as SEQ ID NO: 4. Transcription of this sequence by RNA polymerase produces an shRNA having the Sequence Listing as SEQ ID NO: 5. This is processed using Dicer complex to remove the hairpin to give the double stranded RNA sequence of SEQ ID NO: 1 which specifically knocks down the expression of human eNOS Exemplary dosage is 100-1600 micrograms based on a clinical trial of the siRNA compound AGN211745.
A test for determining that eNOS expression is reduced is by immunoblot by using commercially available phosphor-S1177 eNOS antibody.

For “SEQ ID NO: 2: novel siRNA generated by the applicant that knocks down the expression of human NRas (CAAGAAGAGUACAGUGCCAUG; listed as RNA, chemistry not given here; listed as Homo sapiens)”, the “Tumor initiation and growth of cancer cell lines in mice” value (shortened to “Tumor initiation and growth”) [1] was “inhibits tumor growth” and the “Knockdown of expression of NRas proteins” value (human NRas) was “efficiently knocks down”.
With “SEQ ID NO: 3: published siRNA (Yang, G., et al., Oncogene 22, 5694-5701 (2003)) that knocks down the expression of human HRas (GGCAAGAGUGCGCUGACCAUC; listed as RNA, chemistry not given here; listed as Homo sapiens)” the “Tumor initiation and growth” value [1] was “inhibits tumor growth” and the “Knockdown of expression of HRas proteins” value (human HRas) was “efficiently knocks down”.
For `COC(=O)[C@@H](N)CCCNC(=N)N[N+](=O)[O-]` [L-NAME, N^G-nitro-L-arginine methyl ester], the “Tumor growth (tumor volume vs. time in days after injection)” value [2] was “Tumors grew more slowly” and the “Reduction in tumor size at termination of the experiment” value ([2]; p<0.01) was about 3 fold.
For “SEQ ID NO: 1: novel siRNA generated by the applicant that knocks down the expression of human eNOS (AAGAGUUAUAAGAUCCGCUUC; chemistry not given here; listed as Homo sapiens)”, the “Tumor initiation and growth” value [1] was “blocks tumor initiation and growth” and the “Knockdown of expression of human eNOS” value (human eNOS) was “efficiently knocks down”.
